In series [1] the target is T1, PPAR-gamma (Homo sapiens, UniProt P37231).
T1 sequence (P37231 1-505): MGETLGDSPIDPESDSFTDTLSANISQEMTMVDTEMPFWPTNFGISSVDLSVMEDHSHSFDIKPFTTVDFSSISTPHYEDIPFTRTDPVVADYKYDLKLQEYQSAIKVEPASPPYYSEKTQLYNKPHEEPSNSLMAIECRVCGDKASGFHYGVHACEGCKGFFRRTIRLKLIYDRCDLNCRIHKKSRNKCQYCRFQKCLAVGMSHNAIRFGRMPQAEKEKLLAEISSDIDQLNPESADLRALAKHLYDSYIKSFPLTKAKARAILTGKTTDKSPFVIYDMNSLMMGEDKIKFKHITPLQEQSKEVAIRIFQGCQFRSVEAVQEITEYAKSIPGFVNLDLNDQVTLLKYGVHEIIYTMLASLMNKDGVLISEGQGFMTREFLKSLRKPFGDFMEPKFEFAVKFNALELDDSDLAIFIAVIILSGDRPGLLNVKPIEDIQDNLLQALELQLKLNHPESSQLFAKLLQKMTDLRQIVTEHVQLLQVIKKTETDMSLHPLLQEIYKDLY
The experiment in a line: Fluorescence curves on heating in a Thermofluor instrument (protein unfolding transition). The conditions noted are these: 100 μM dye, 0.2 mg/mL protein, 25 mM HEPES pH 7.9, 200 mM NaCl, 5 mM dithiothreitol, 1 mM EDTA, 384-well plate. The source says: FIG. 3 provides the individual fluorescent curves for three dyes 4-[5-(4-dimethylaminophenyl)oxazol-2-yl]-N-(2-guanidinoethyl)-benzene-sulfonamide, 5-(4″-dimethylaminophenyl)-2-(4′-phenyl)oxazole sulfonate, and 1,8-anilino-napthylene sulfonate) when analyzed in a Thermofluor® instrument using the protein PPAR-gamma as described in Example 3.
4-[5-(4-dimethylaminophenyl)oxazol-2-yl]-N-(2-guanidinoethyl)-benzenesulfonamide, 5-(4″-dimethylaminophenyl)-2-(4′-phenyl)oxazole sulfonate, and 1,8-anilino-napthylene sulfonate were mixed with a protein, PPAR-gamma, each in separate wells of a polypropylene 384-well plate. Each solution consisted of 100 μM of each dye mixed with 0.2 mg/mL protein in a buffer consisting of 25 mM HEPES pH 7.9, 200 mM NaCl, 5 mM dithiothreitol, and 1 mM EDTA. Individual fluorescence curves generated by heating to different temperatures in a Thermofluor® instrument are shown in FIG. 3.
On the technique in general: Differential scanning fluorimetry follows unfolding on heating by fluorescence.

In series [2] the target is thrombin (Homo sapiens, UniProt P00734). The experiment in a line: Fluorescence emission spectra of dye mixed with native and heat-unfolded thrombin. The conditions noted are these: for emission maximum (comparison dyes): comparison value, conditions not stated. How it is done:
FIG. 2 provides the fluorescence emission spectra of 4-[5-(4-dimethylaminophenyl)oxazol-2-yl]-N-(2-guanidinoethyl)-benzenesulfonamide (10 μM) mixed with thrombin (0.1 mg/mL) in buffer (50 mM HEPES, pH 7.5, 150 mM NaCl). The emission spectrum indicated by the squares was acquired with native (folded) thrombin, immediately after preparing the solution. The emission spectrum indicated by the triangles was obtained after heating the solution to 80° C. for five minutes to unfold the thrombin protein.
(§1) 4-[5-(4-dimethylaminophenyl)oxazol-2-yl]-N-(2-guanidinoethyl)-benzenesulfonamide was mixed with different solvents to yield a final dye concentration of 10 μM. The spectra of this dye in methanol (MeOH), dimethyl sulfoxide (DMSO), and aqueous buffer (50 mM HEPES, pH7.5, 150 mM sodium chloride) are shown in FIG. 1. This figure illustrates the marked enhancement in emission intensity (200–500 fold) observed for this dye when it is shifted from an aqueous environment to a nonaqueous environment. The 4-[5-(4-dimethylaminophenyl)oxazol-2-yl]-N-(2-guanidinoethyl)benzenesulfonamide was mixed with a 0.1 mg/mL solution of thrombin, a protein, in buffer (50 mM HEPES, pH7.5, 150 mM sodium chloride), to yield a final dye concentration of 10 μM. The fluorescence emission spectra of this solution were recorded both immediately after mixing and also following heating of the solution to 80° C. for 5 minutes.

A short description of series [3]: Fluorescence emission spectra of the dye in different solvents. It is filed as physicochemical. The conditions noted are these: 10 μM dye; shifted from aqueous buffer (50 mM HEPES, pH7.5, 150 mM sodium chloride) to nonaqueous environment (MeOH, DMSO). How it is done: FIG. 1A provides the fluorescence emission spectra of 4-[5-(4-dimethylaminophenyl)oxazol-2-yl]-N-(2-guanidinoethyl)-benzenesulfonamide in methanol and in dimethylsulfoxide. Also provided is the fluroescence emission spectrum of the buffer. FIG. 1B provides part of the spectrum of FIG. 1A, showing the range from 0 to 10,000 cps.
as §1

Entries after “also recorded” stand apart in the source; their conditions may differ.

On to `O=S(=O)(O)c1cccc2cccc(Nc3ccccc3)c12` [1,8-anilinonaphthylene sulfonate, reference compound], for which the “measurable unfolding transition of the protein” value (“measurable unfolding transition” for short) in series [1] is recorded as “fail to produce a measurable transition”. Also, the “emission maximum (comparison dyes)” value in series [2] was “approximately 460 nm”.

Turning to `CN(C)c1ccc(-c2cnc(-c3ccc(S(=O)(=O)NCCNC(=N)N)cc3)o2)cc1` [4-[5-(4-dimethylaminophenyl)oxazol-2-yl]-N-(2-guanidinoethyl)benzenesulfonamide], the “measurable unfolding transition” value in series [1] is given as “can be readily monitored”. Besides, the “enhancement in emission intensity” value in series [3] is reported as 200–500 fold. Moreover, in series [2] (10 μM dye, 0.1 mg/mL thrombin, 50 mM HEPES pH7.5, 150 mM NaCl, after heating to 80° C. for 5 minutes), the “emission maximum of dye bound to unfolded protein” value stood at 520 nm. In addition, the “change in fluorescence emission on binding to unfolded protein” value in series [2] (10 μM dye, 0.1 mg/mL thrombin, after heating to 80° C. for 5 minutes vs native) was “substantial enhancement in fluorescence emission; also recorded: increase in fluorescence emission”.

For `CN(C)c1ccc(-c2cnc(-c3ccc(S(=O)(=O)O)cc3)o2)cc1` [5-(4″-dimethylaminophenyl)-2-(4′-phenyl)oxazole sulfonate, reference compound], the “measurable unfolding transition” value in series [1] was “fail to produce a measurable transition”. The “emission maximum (comparison dyes)” value in series [2] is “approximately 460 nm”.

For the origin of these results see US7078406B2, “Substituted diphenyloxazoles, the synthesis thereof, and the use thereof as fluorescence probes” (Johnson & Johnson Pharmaceutical Research & Development, …, priority 2001, dated 2006).
